# B1: BMP4: growth factor bone morphogenic protein, BMP4 (protein, UniProt P12644 293-408, looked up)
# Bone morphogenetic protein 4: SPKHHSQRARKKNKNCRRHSLYVDFSDVGWNDWIVAPPGYQAFYCHGDCPFPLADHLNSTNHAIVQTLVNSVNSSIPKACCVPTELSAISMLYLDEYDKVVLKNYQEMVVEGCGCR
# Key:
# [1] = test system: hESC; assay: TSA toxicity in hESC; type: cell-based, human
# [2] = test system: hESC; settings: independent of feeders or recombinant growth factors; cited from earlier work
# [3] = test system: fibroblasts; settings: added to fibroblasts, alone; cited from earlier work
# [4] = test system: hESC; assay: BMP4-induced differentiation of hESC colonies; type: cell-based, human; settings: hESC line WA07, 100 ng/ml BMP4, 4 days; confirmed by CDX2 immunostaining
# Method: Pluripotent hESC cultures, line WA07 (a, d, g, i) were compared to hESC that were differentiated in vitro for 4 days in culture with 100 ng/ml BMP4 (b, e, h, j). The squamous epithelial monolayer that was formed is trophectoderm, found in the outer shell of blastocysts and destined to form the placenta. Fixed colonies were stained with the DNA dye, Hoechst 33342 (a, b) and with antibodies to the pluripotency marker OCT4 (d) and the trophectoderm marker, CDX2 (e). Morphological differences that are characteristic of the spreading colonies include an increase in cell (c) and nuclear size (f). The Hoechst image of 4 colonies were analyzed for nuclear size and number of nuclei per colony area (average cell area) and differences between pluripotent and trophectoderm colony morphology were significant at p<0.05 by Students T test. Colony morphology in live cells (g, h), not fixed and immunostained as was performed in (a-f), is provided by the distribution of spatial frequencies in the image (i, j). […] Spatial frequencies are higher in pluripotent than in TE colonies and can be more completely measured using wavelet analysis, a generalized 2D, multiscalar measure of image texture. […] Empirical probability density functions (k-l) for three detail subbands of the line scans in (i) and (j) quantify the concept of spatial frequency. […]
molecule,measurement,setting,value
"CC(/C=C/C(=O)NO)=C\[C@@H](C)C(=O)c1ccc(N(C)C)cc1 [TSA, trichostatin A]",highest concentration without toxic effects,[1],1 nM
same,effect on self-renewal,[2],activates a self-renewal program in hESC
FGF2: single growth factor added to media or fibroblasts,effect on expression of endogenous pluripotency markers,[3],increased expression of endogenous pluripotency markers
B1,differentiation outcome,[4],form trophectoderm

# — patent US8515150B2, “Mathematical image analysis based cell reprogramming with applications for epigenetic and non-epigenetic base induced pluripotent stem cell derivation” (The Charles Stark Draper Laboratory, Inc., priority 2009, dated 2013)
